Laboratory results: US7566712B2, “Biaryl piperazinyl-pyridine analogues” (Neurogen Corporation, priority 2003, dated 2009)

Biological target: T1, human capsaicin receptor (Homo sapiens, UniProt Q8NER1)
T1 construct: pBK-CMV expression construct encoding the full length human capsaicin receptor; expressed in transfected cells
Experiment: Calcium mobilization assay, determination of antagonist activity (Example 6)
Assay type: cell-based
Conditions: determined as described in Example 6 (calcium mobilization, antagonist activity); Table II
Summary of the method: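 Antagonism measured as inhibition of capsaicin-evoked (final concentration = EC50, from an 8-point 1 nM–3 μM curve) Fluo-3 calcium signal in stable hVR1-HEK293 cells. Test compounds at 1–5 μM final, 0.5–6 h dark preincubation at room temperature. IC50 = concentration giving 50% reduction versus agonist-only response.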

T1 sequence (Q8NER1 whole entry): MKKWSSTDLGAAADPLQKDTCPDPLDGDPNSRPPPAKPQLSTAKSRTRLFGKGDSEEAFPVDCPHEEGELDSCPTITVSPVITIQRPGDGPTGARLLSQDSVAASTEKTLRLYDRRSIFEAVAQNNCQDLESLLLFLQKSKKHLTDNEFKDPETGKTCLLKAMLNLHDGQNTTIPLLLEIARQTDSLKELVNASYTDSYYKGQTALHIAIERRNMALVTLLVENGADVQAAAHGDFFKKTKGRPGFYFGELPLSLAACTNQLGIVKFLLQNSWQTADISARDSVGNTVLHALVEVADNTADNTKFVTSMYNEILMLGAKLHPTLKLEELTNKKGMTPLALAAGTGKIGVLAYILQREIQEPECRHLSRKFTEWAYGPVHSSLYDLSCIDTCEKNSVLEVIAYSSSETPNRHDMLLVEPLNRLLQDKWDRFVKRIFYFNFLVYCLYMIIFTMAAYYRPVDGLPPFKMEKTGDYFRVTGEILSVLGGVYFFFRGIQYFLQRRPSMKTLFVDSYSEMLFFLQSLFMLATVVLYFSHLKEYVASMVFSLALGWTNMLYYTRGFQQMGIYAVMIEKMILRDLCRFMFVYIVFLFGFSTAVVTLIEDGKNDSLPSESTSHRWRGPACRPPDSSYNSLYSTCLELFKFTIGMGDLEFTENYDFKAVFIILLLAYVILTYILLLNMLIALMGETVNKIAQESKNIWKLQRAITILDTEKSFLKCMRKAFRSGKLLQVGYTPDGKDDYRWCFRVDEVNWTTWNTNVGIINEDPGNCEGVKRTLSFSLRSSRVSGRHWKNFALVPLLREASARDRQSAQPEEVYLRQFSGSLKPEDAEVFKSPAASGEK

IC50, ≤ 1000 nM:
N#Cc1cccnc1N1CCN(c2cc(-c3ccc(F)c(Cl)c3)nc(N3CCOCC3)n2)CC1 [Example 583, 2-{4-[6-(3-chloro-4-fluorophenyl)-2-morpholin-4-ylpyrimidin-4-yl]piperazin-1-yl}nicotinonitrile]
Nc1nc(-c2ccc(F)c(Cl)c2)cc(N2CCN(c3ncccc3C(F)(F)F)CC2)n1 [Example 584, 4-(3-chloro-4-fluorophenyl)-6-{4-[3-(trifluoromethyl)pyridin-2-yl]piperazin-1-yl}pyrimidin-2-amine]
Cc1cccnc1N1CCN(c2cc(-c3ccc(F)c(Cl)c3)nc(N3CCOCC3)n2)CC1 [Example 585, 4-{4-(3-chloro-4-fluorophenyl)-6-[4-(3-methylpyridin-2-yl)piperazin-1-yl]pyrimidin-2-yl}morpholine]
COc1cccnc1N1CCN(c2cc(-c3ccc(F)c(Cl)c3)nc(N3CCOCC3)n2)CC1 [Example 586, 4-{4-(3-chloro-4-fluorophenyl)-6-[4-(3-methoxypyridin-2-yl)piperazan-1-yl]pyrimidin-2-yl}morpholine]
Nc1cccnc1N1CCN(c2cc(-c3ccc(F)c(Cl)c3)nc(N3CCOCC3)n2)CC1 [Example 587, 2-{4-[6-(3-chloro-4-fluorophenyl)-2-morpholin-4-ylpyrimidin-4-yl]piperazin-1-yl}pyridin-3-amine]
CS(=O)(=O)Nc1cccnc1N1CCN(c2cc(-c3ccc(F)c(Cl)c3)nc(N3CCOCC3)n2)CC1 [Example 588, N-(2-{4-[6-(3-chloro-4-fluorophenyl)-2-morpholin-4-ylpyrimidin-4-yl]piperazin-1-yl}pyridin-3-yl)methanesulfonamide]
Nc1cccc(-c2cc(N3CCN(c4ncccc4C(F)(F)F)CC3)nc(N3CCOCC3)n2)c1 [Example 589, 3-(2-morpholin-4-yl-6-{4-[3-(trifluoromethyl)pyridin-2-yl]piperazin-1-yl}pyrimidin-4-yl)phenylamine]
Cc1cc(-c2cc(N3CCN(c4ncccc4C(F)(F)F)CC3)nc(N3CCOCC3)n2)cc(C)n1 [Example 590, 4-(4-(2,6-dimethylpyridin-4-yl)-6-{4-[3-(trifluoromethyl)pyridin-2-yl]piperazin-1-yl}pyrimidin-2-yl)morpholine]
CCN(CC)c1nc(-c2cc(C)nc(C)c2)cc(N2CCN(c3ncccc3C(F)(F)F)CC2)n1 [Example 591, 4-(2,6-dimethylpyridin-4-yl)-N,N-diethyl-6-{4-[3-(trifluoromethyl)pyridin-2-yl]piperazin-1-yl}pyrimidin-2-amine]
CC(C)c1cc(-c2cc(N3CCN(c4ncccc4C(F)(F)F)CC3)nc(N3CCOCC3)n2)ccn1 [Example 592, 4-(4-(2-isopropylpyridin-4-yl)-6-{4-[3-(trifluoromethyl)pyridin-2-yl]piperazin-1-yl}pyrimidin-2-yl)morpholine]
FC(F)(F)c1cccnc1N1CCN(c2cc(-c3cncc(Cl)c3)nc(N3CCOCC3)n2)CC1 [Example 593, 4-(4-(5-chloropyridin-3-yl)-6-{4-[3-(trifluoromethyl)pyridin-2-yl]piperazin-1-yl}pyrimidin-2-yl)morphotine]
CCN(CC)c1nc(-c2ccc(F)c(C)c2)cc(N2CCN(c3ncccc3C(F)(F)F)CC2)n1 [Example 594, N,N-diethyl-4-(4-fluoro-3-methylphenyl)-6-{4-[3-(trifluoromethyl)pyridin-2-yl]piperazin-1-yl}pyrimidin-2-amine]
CCN(CC)c1nc(-c2cncc(Cl)c2)cc(N2CCN(c3ncccc3C(F)(F)F)CC2)n1 [Example 595, 4-(5-chloropyridin-3-yl)-N,N-diethyl-6-{4-[3-(trifluoromethyl)pyridin-2-yl]piperazin-1-yl}pyrimidin-2-amine]
CCN(CC)c1nc(-c2ccc(F)c(F)c2)cc(N2CCN(c3ncccc3C(F)(F)F)CC2)n1 [Example 596, 4-(3,4-difluorophenyl)-N,N-diethyl-6-{4-[3-(trifluoromethyl)pyridin-2-yl]piperazin-1-yl}pyrimidin-2-amine]
CCN(CC)c1nc(-c2cccc(Cl)c2)cc(N2CCN(c3ncccc3C(F)(F)F)CC2)n1 [Example 597, 4-(3-chlorophenyl)-N,N-diethyl-6-{4-[3-(trifluoromethyl)pyridin-2-yl]piperazin-1-yl}pyrimidin-2-amine]
CC(C)N1CCN(c2nc(-c3ccc(F)c(Cl)c3)cc(N3CCN(c4ncccc4C(F)(F)F)CC3)n2)CC1 [Example 598, 4-(3-chloro-4-fluorophenyl)-2-(4-isopropylpiperazin-1-yl)-6-{4-[3-(trifluoromethyl)pyridin-2-yl]piperazin-1-yl}pyrimidine]
CC(C)N(C)c1nc(-c2ccc(F)c(Cl)c2)cc(N2CCN(c3ncccc3C(F)(F)F)CC2)n1 [Example 600, 4-(3-chloro-4-fluorophenyl)-N-isopropyl-N-methyl-6-{4-[3-(trifluoromethyl)pyridin-2-yl]piperazin-1-yl}pyrimidin-2-amine]
CCN(c1nc(-c2ccc(F)c(Cl)c2)cc(N2CCN(c3ncccc3C(F)(F)F)CC2)n1)C(C)C [Example 601, 4-(3-chloro-4-fluorophenyl)-N-ethyl-N-isopropyl-6-{4-[3-(trifluoromethyl)pyridin-2-yl]piperazin-1-yl}pyrimidin-2-amine]
Fc1ccc(-c2cc(N3CCN(c4ncccc4C(F)(F)F)CC3)nc(N3CCCCC3)n2)cc1Cl [Example 602, 4-(3-chloro-4-fluorophenyl)-2-piperidin-1-yl-6-{4-[3-(trifluoromethyl)pyridin-2-yl]piperazin-1-yl}pyrimidine]
Fc1ccc(-c2cc(N3CCN(c4ncccc4C(F)(F)F)CC3)nc(N3CCCC3)n2)cc1Cl [Example 603, 4-(3-chloro-4-fluorophenyl)-2-pyrrolidin-1-yl-6-{4-[3-(trifluoromethyl)pyridin-2-yl]piperazin-1-yl}pyrimidine]
CCN(CC)c1nc(-c2cccc(C)c2)cc(N2CCN(c3ncccc3C(F)(F)F)CC2)n1 [Example 604, N,N-diethyl-4-(3-methylphenyl)-6-{4-[3-(trifluoromethyl)pyridin-2-yl]piperazin-1-yl}pyrimidin-2-amine]
CC(C)c1nc(-c2ccc(F)c(Cl)c2)cc(N2CCN(c3ncccc3C(F)(F)F)CC2)n1 [Example 605, 4-(3-chloro-4-fluorophenyl)-2-isopropyl-6-{4-[3-(trifluoromethyl)pyridin-2-yl]piperazin-1-yl}pyrimidine]
Cc1ccc(-c2cc(N3CCN(c4ncccc4C(F)(F)F)CC3)nc(N3CCOCC3)n2)cn1 [Example 606, 4-(4-(6-methylpyridin-3-yl)-6-{4-[3-(trifluoromethyl)pyridin-2-yl]piperazin-1-yl}pyrimidin-2-yl)morpholine]
CCN(CC)c1nc(-c2ccc(C)nc2)cc(N2CCN(c3ncccc3C(F)(F)F)CC2)n1 [Example 607, N,N-diethyl-4-(6-methylpyridin-3-yl)-6-{4-[3-(trifluoromethyl)pyridin-2-yl]piperazin-1-yl}pyrimidin-2-amine]
FC(F)(F)c1cccnc1N1CCN(c2cc(-c3ccc(N4CCCC4)c(Cl)c3)nc(N3CCCC3)n2)CC1 [Example 608, 4-(3-chloro-4-pyrrolidin-1-ylphenyl)-2-pyrrolidin-1-yl-6-{4-[3-(trifluoromethyl)pyridin-2-yl]piperazin-1-yl}pyrimidine]
CC1CCCN1c1nc(-c2ccc(F)c(Cl)c2)cc(N2CCN(c3ncccc3C(F)(F)F)CC2)n1 (centres unmarked) [Example 609, 4-(3-chloro-4-fluorophenyl)-2-(2-methylpyrrolidin-1-yl)-6-{4-[3-(trifluoromethyl)pyridin-2-yl]piperazin-1-yl}pyrimidine]
OC[C@H]1CCCN1c1nc(-c2ccc(F)c(Cl)c2)cc(N2CCN(c3ncccc3C(F)(F)F)CC2)n1 [Example 610, [(2R)-1-(4-(3-chloro-4-fluorophenyl)-6-{4-[3-(trifluoromethyl)pyridin-2-yl]piperazin-1-yl}pyrimidin-2-yl)pyrrolidin-2-yl]methanol]
CC1CCCCN1c1nc(-c2ccc(F)c(Cl)c2)cc(N2CCN(c3ncccc3C(F)(F)F)CC2)n1 (centres unmarked) [Example 611, 4-(3-chloro-4-fluorophenyl)-2-(2-methylpiperidin-1-yl)-6-{4-[3-(trifluoromethyl)pyridin-2-yl]piperazin-1-yl}pyrimidine]
CC1(C)CCCN(c2nc(-c3ccc(F)c(Cl)c3)cc(N3CCN(c4ncccc4C(F)(F)F)CC3)n2)C1 [Example 612, 4-(3-chloro-4-fluorophenyl)-2-(3,3-dimethylpiperidin-1-yl)-6-{4-[3-(trifluoromethyl)pyridin-2-yl]piperazin-1-yl}pyrimidine]
CCC1CCCCN1c1nc(-c2ccc(F)c(Cl)c2)cc(N2CCN(c3ncccc3C(F)(F)F)CC2)n1 (centres unmarked) [Example 613, 4-(3-chloro-4-fluorophenyl)-2-(2-ethylpiperidin-1-yl)-6-{4-[3-(trifluoromethyl)pyridin-2-yl]piperazin-1-yl}pyrimidine]
CC1CN(c2nc(-c3ccc(F)c(Cl)c3)cc(N3CCN(c4ncccc4C(F)(F)F)CC3)n2)CCN1 (centres unmarked) [Example 614, 4-(3-chloro-4-fluorophenyl)-2-(3-methylpiperazin-1-yl)-6-{4-[3-(trifluoromethyl)pyridin-2-yl]piperazin-1-yl}pyrimidine]
CC(C)CN(C)c1nc(-c2ccc(F)c(Cl)c2)cc(N2CCN(c3ncccc3C(F)(F)F)CC2)n1 [Example 615, 4-(3-chloro-4-fluorophenyl)-N-isobuty-methyl-6-{4-[3-(trifluoromethyl)pyridin-2-yl]piperazin-1-yl}pyrimidin-2-amine]
